Data: patent US12178867B2, “MHC class i associated peptides for prevention and treatment of multiple flavi virus” (priority 2018, dated 2024)

Assays:
peptide loaded T2 cells = assay: CTL assay: peptide-stimulated PBMCs of naive HLA-A2+ donor co-cultured with peptide loaded T2 cells, flow cytometry (FIG. 3A); format: cell-based, human
Experimental: FIGS. 3A and 3B: (FIG. 3A) Utilizing a healthy (naive) human HLA-A2+ donor, peripheral blood mononuclear cells (PBMCs) were stimulated with peptide epitopes in a cytokine cocktail to induce antigen specific CTL response. These stimulated PBMCs were then assayed by co-culturing peptide loaded targets for antigen specific response. TAP-deficient cells (T2) were used for peptide loading, and blank T2 cells used as control. Expanded PBMCs were assayed for both CD107a degranulation and interferon gamma (IFN-g) markers by flow cytometry. All 6 peptide epitopes induced CD8+ CD107a and IFNg expression to peptide loaded T2 cells in a peptide specific manner. […] (FIG. 3B) Utilizing a healthy (naive) human HLA-A2+ donor, peripheral blood mononuclear cells (PBMCs) were stimulated with peptide epitopes in a cytokine cocktail to induce antigen specific CTL response. These stimulated PBMCs were then assayed by co-culturing with Hep2G infected cells (DV2/Zika). Uninfected HepG2 cells were used as control. Expanded PBMCs were assayed for both CD107a degranulation and interferon gamma (IFN-g) markers by flow cytometry.
In one experiment, utilizing a healthy (naive) human HLA-A2+ donor, peripheral blood mononuclear cells (PBMCs) were stimulated with peptide epitopes in a cytokine cocktail to induce antigen specific CTL response. […]

[1] = test system: peptide loaded HepG2 cells; assay: CTL assay: peptide-stimulated PBMCs of naive HLA-A24+ donor co-cultured with peptide loaded HepG2 cells, flow cytometry (FIG. 4); format: cell-based, human; conditions: blank HepG2 cells as control
Experimental: FIG. 4: Utilizing a healthy (naive) human HLA-A24+ donor, peripheral blood mononuclear cells (PBMCs) were stimulated with peptide epitopes in a cytokine cocktail to induce antigen specific CTL response. These stimulated PBMCs were then assayed by co-culturing peptide loaded targets for antigen specific response. Hep2G cells were used for peptide loading, and blank Hep2G cells used as control. Also used was HepG2 cells infected with Dengue (DV2) and Zika. Expanded PBMCs were assayed for both CD8/IFNg double expression by flow cytometry. All 4 peptide epitopes induced CD8+ IFNg expression to peptide loaded HepG2 cells in a peptide specific manner. […] FIG. 5: Transgenic A2 mice were immunized with 200 ng of NP-Dengue peptides. The spleen cells were isolated and then exposed to either Zika or Dengue infected cells. […] Acid stripping of the peptides makes the cells non-response.
In a further experiment, utilizing a healthy (naive) human HLA-A24+ donor, peripheral blood mononuclear cells (PBMCs) were stimulated with peptide epitopes in a cytokine cocktail to induce antigen specific CTL response. These stimulated PBMCs were then assayed by co-culturing peptide loaded targets for antigen specific response (FIG. 4). Hep2G cells were used for peptide loading, and blank Hep2G cells used as control. Also used was HepG2 cells infected with Dengue (DV2) and Zika. […]

PMAAVGLLIVS (listed as Dengue virus) [SEQ ID NO: 2]
IFNg+ effect (peptide loaded T2 cells): particular pronounced IFNg+ effect | CD8+ IFNg expression to peptide loaded HepG2 cells [1]: particular pronounced IFNg+ effect
